From patent publication US8278298B2, “Inhibition of tau-tau-association” (Wista Laboratories Ltd., priority 1995, dated 2012)
“Also recorded” adds a separate entry of the source. One block for each molecule: values may come before it.

Experiments:
[1] = systemic administration; cited from earlier work
[2] = target: T1, tau-tau binding (truncated core tau unit of the PHF / full-length tau T40) (Homo sapiens, UniProt P10636); test: Tau-tau binding assay (truncated core tau unit in solid phase, tau in aqueous phase); conditions: for Ki: standard competitive inhibition model
T1 construct: the truncated core tau unit terminating at Ala-390 (“a”); made in house; host or cells: E. coli BL21 (DE3), plasmid pRK172
T1 sequence (P10636 614-707 limits assumed): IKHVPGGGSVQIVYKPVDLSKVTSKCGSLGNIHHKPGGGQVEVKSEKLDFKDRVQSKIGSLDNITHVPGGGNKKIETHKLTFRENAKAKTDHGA
Excerpt: Particularly preferred is the following configuration for tau-tau binding assays (FIG. 10): A tau fragment, preferably a recombinant tau fragment, corresponding to the truncated tau unit of the core PHF is bound to a solid phase, e.g. a conventional ELISA plate, in buffer conditions which have been shown not to favour tau-tau association. […] The solid phase is usually poly(vinyl-chloride), but may be other polymers such as cellulose, polyacrylamide, nylon, polystyrene or polypropylene. The solid supports may be in the form of tubes, beads, discs or micro plates, or any other surfaces suitable for conducting an assay, and which on passive binding of tau protein, exposes the high affinity tau capture site. Following binding, the solid phase-antibody complex is washed in preparation for the test sample.
Next, a truncated unit terminating at Glu-391 was incubated. Only the lafter could be detected as mAb 423 immunoreactivity. […] Therefore plating of the core tau unit for passive binding to solid phase matrix was carried out in this buffer. If desired, a depolymerised tubulin preparation or a preparation of microtubules in the same buffer can be plated for passive binding for determination of tau-tubulin binding. Suitable agents for blocking excess binding sites are milk extract, bovine serum albumin, gelatine, etc. […]
FIG. 8: Tau binding assay configuration in which binding of two truncated units is measured. […]
FIG. 10: Standard configuration for measurement of binding of full-length tau (“t”) to the truncated core tau unit previously bound passively to the solid phase (“a”). […] Binding is detected by an appropriate antibody, which recognises an epitope located near the N-terminus of full-length tau.
(§1) FIG. 20: Selective inhibition of tau-tau-binding by thionine. […] The Ki values were calculated using the Kd values obtained from the corresponding binding studies using full-length tau. […]
The assay is carried out in a 96-well PVC microtitre plate, with solutions added and readings taken with respect to individual wells: […]

3T3 cells = test: Toxicity of inhibitors in 3T3 cells; format: cell-based, mouse
Procedure: (§2) Mouse fibroblast 3T3 cells were transfected with a eukaryotic expression vector (pIF2) containing full-length and truncated forms of tau protein under constitutive control by a β-globin promotor. This vector contains a neomycin resistance gene as a selectable marker (pSV2neo; Sambrook et al. (1989), loc. cit.; modified by M. N. Neuberger). Cells were cultured in […] (DMEM) containing antimicrobial agents and 10% foetal calf serum at 37° C. in an atmosphere of 5% CO2. They were transfected with plasmid DNA either using a standard calcium phosphate protocol or by lipofection (according to manufacturers protocol; Gibco BRL). Cells which had integrated the plasmid DNA were selected by viability in medium containing Geneticin (0.5 mg/ml; Southern and Berg (1982), J. Mol. Appl. Genet. 1, 327).
The toxicity of the truncated core tau unit might be reversible in part if the prototype phenothiazine inhibitors could be used to block self-aggregation in vivo. This would be feasible only if the compounds were not intrinsically toxic at concentrations needed to block tau-tau binding. […] In practice, 3T3 cells could be grown several month in the presence of 2 μM thionine.

[3] = target: tau-tubulin binding (depolymerised tubulin coated, tau incubated) (Homo sapiens, UniProt P10636); test: Tau-tubulin binding assay; conditions: read-out: Ki for inhibition of the tau-tubulin binding interaction in vitro
Sequence of tau-tubulin binding (depolymerised tubulin coated, tau incubated) (P10636 1-441 isoform P10636-8): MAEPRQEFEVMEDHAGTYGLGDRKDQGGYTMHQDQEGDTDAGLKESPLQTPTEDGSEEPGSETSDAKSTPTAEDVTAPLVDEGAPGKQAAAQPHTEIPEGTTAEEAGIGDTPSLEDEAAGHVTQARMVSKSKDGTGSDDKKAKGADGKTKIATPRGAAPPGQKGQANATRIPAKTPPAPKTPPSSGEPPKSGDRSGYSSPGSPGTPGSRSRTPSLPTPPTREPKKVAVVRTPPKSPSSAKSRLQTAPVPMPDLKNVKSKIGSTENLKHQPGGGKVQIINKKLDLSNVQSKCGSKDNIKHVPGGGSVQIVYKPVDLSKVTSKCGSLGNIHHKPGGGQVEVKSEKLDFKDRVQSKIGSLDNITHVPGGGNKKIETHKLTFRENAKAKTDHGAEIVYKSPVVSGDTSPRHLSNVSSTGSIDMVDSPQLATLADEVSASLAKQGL
Procedure: A method of determining any possible interference, i.e. binding of tau or a derivative thereof to tubulin molecules, comprises contacting a depolymerised tubulin preparation, or preparation of taxol-stabilised microtubules with an agent suspected of being capable of modulating or inhibiting pathological tau-tau association and a tau compound mentioned in above step c) followed by detection of the tau-tubulin binding.
Next, a truncated unit terminating at Glu-391 was incubated. Only the lafter could be detected as mAb 423 immunoreactivity. […] Therefore plating of the core tau unit for passive binding to solid phase matrix was carried out in this buffer. If desired, a depolymerised tubulin preparation or a preparation of microtubules in the same buffer can be plated for passive binding for determination of tau-tubulin binding. Suitable agents for blocking excess binding sites are milk extract, bovine serum albumin, gelatine, etc. […] No binding of full-length tau was seen without prior plating of the core tau unit in the solid phase. When both species were present, binding was seen to depend on concentration of both species. […]
as §1

[4] = tested on: tau/MAP2 binding interaction (foetal MAP2C); test: Tau/MAP2 binding in the standard binding assay; conditions: truncated tau/MAP2C and MAP2C/full-length tau configurations
Excerpt: One possible explanation for the lack of MAP2 in PHFs might be that MAP2 in PHFs might be MAP2 is unable to bind to the core tau unit of the PHF because of sequence differences in the repeat regions. This was examined experimentally using the standard binding assay in two configurations: truncated tau in the solid phase with foetal MAP2C in the aqueous phase, and MAP2C in the solid phase with full-length tau in the aqueous phase. […] Thus, aggregation in the tandem-repeat region is not selective for tau, and the inhibitory activity of phenothiazine inhibitors such as thionine is not dependent on sequences unique to tau. The reason why MAP2 is not found in PHFs is at present unknown, but factors may include the contribution of the large N-terminal domain found in the adult form of MAP2, compartment differences within the cell, or other differences in processing of the MAP2 molecules.

[5] = tested on: 3T3 fibroblast transfected with full-length tau protein; test: Cytoskeletal distribution of tau in 3T3 fibroblasts transfected with full-length tau; format: cell-based, mouse
Procedure: as §2
The influence of thionine on the tau-tubulin binding interaction was examined in vivo by culturing 3T3 fibroblast transfected with full-length tau protein in the presence of thionine at a range of concentrations.

[6] = tested on: 3T3 cells transfected with truncated tau; test: Viability of 3T3 cells transfected with truncated tau; format: cell-based, mouse; conditions: grown in higher concentrations of thionine
Procedure: as §2
The number of viable cell lines transfected with truncated tau increased when the cells were grown in the presence of higher concentrations of thionine.

[7] = tested on: 3T3 cells transfected with PIF2::T40; test: Lipofectin/tau protein transfer into 3T3 cells expressing full-length tau; format: cell-based, mouse; conditions: truncated tau transferred via lipofectin, all three concentrations of truncated tau; thionine 1 μM
Procedure: FIG. 30: Lipofectin/tau protein transfers into 3T3 cells transfected with PIF2::T40. Relative cell survival (normalised to cell counts after Lipofectin treatment without protein) is shown for approximately equimolar concentrations of full-length (T40, 220 nM) and truncated tau (dGAE, 300 nM), without (unshaded) or with shaded) thionine at 1 μM. Truncated tau is more toxic than full-length tau (p=0.02), despite the fact that at equimolar concentrations, the total protein load is 5× greater in the case of full-length tau.
FIGS. 31A and 31B: (FIG. 31A) Reversal of truncated tau toxicity: The toxicity of truncated tau transferred via lipofectin into 3T3 cells expressing full-length tau is concentration dependent. […] (FIG. 31B) Similar experiment in which full-length tau was transferred via lipofectin into 3T3 cells expressing full-length. Both toxicity and thionine effects were much less apparent.

PC-12 cells = test: pNFH aggregates and neurite incorporation in PC-12 cells; format: cell-based; conditions: for Frequency of cells with pNFH aggregates: after db-cAMP, with thionine
Procedure: (§3) Neuronal cell lines (N2A, NIE-115) were cultured in DMEM containing 2% or 10% foetal calf serum and 5% horse serum on tissue culture plates coated with collagen. These were all grown at 37° C. in an atmosphere containing 5% CO2. Initial immunohistochemical studies of neuronal cell lines prior to transfection led to the identification of cytoplasmic aggregates immunoreactive with mAb 423 forming in the cytoplasm of undifferentiated neuroblastoma cells (N2A cells) and in PC-12 cells after brief treatment with dibutyryl-cAMP (db-cAMP, known to differentiate neuroblastoma cells in tissue culture). […] In the course of differentiation, this endogenous mAb 423 immunoreactivity was seen to shift from the cytoplasm to neurites. Immunoprecipitation of mAb423 immunoreactivity from these cells led to the identification of a species with gel mobility of 230 kDa which was recognised by SMI-31. […] We refer to them as presumptive-NFH aggregates (pNFH).
PC-12 cells were transfected with the pIF2 vector containing either the PHF-core tau fragment truncated at Glu-391 or full-length tau protein. As with 3T3 fibroblasts, no viable cell lines transfected with truncated tau were produced unless cells were grown in thionine following transfection. Once stahilised, transfected cell lines were analysed in the presence or absence of db-cAMP and in the presence and absence of thionine. Two end-points were examined: formation of cytoplasmic pNPH aggregates, and distribution of pNFH immunoreactivity into neurites.

NIE-115 cells = test: pNFH aggregates and neurite incorporation in NIE-115 cells; format: cell-based
Procedure: as §3
Rather, pNFH immunoreactivity was normally incorporated into growing neurites during the course of differentiation, although an early perinuclear-arc stage was also seen. NIE cells were transfected as above with the pIF2 vector containing either full-length or truncated tau protein and grown in the presence of thionine. The effects of adding db-cAMP in the presence or absence of thionine were then examined.

neuronal cell lines = test: Toxicity for neuronal cell lines; format: cell-based; conditions: concentrations up to 2 μM

Molecule: CN(C)c1ccc2nc3ccc(=[N+](C)C)cc-3sc2c1 [methylene blue]
CNS penetration [1]: CNS penetration following systemic administration has been described

Binding to the core tau unit ([2]; introduced in the aqueous phase): incapable of pathological binding
Molecule: POTr: fetal rat tau

Ki [2]: 100 nM
Molecule: acriflavin [reference compound]
Toxicity in 3T3 cells / fibroblasts (3T3 cells): lowest toxicity

Ki [2]: 100 nM
Ki [3]: 8000 nM
Effect on tau/MAP2 binding interaction [4]: blocked
Molecule: thionine
Toxicity in 3T3 cells / fibroblasts (3T3 cells): lowest toxicity; also recorded: does not appear to have substantial intrinsic toxicity
Concentration at which 3T3 cells could be grown several months (3T3 cells; prolonged culture): 2000 nM
Concentration causing disruption of normal cytoskeletal distribution of tau immunoreactivity [5]: 4 to 8 µM
Effect on cytoskeletal distribution of tau ([5]; concentration range 0.5-2 μM): no effect
Number of viable cell lines transfected with truncated tau [6]: increased
Reversal of truncated tau toxicity [7]: significantly reversed toxicity
pNFH-neurite index (PC-12 cells; PC-12 cells transfected with truncated tau, with thionine (0.04 without)): 0.49
Frequency of cells with pNFH aggregates (PC-12 cells; all transfected cells (49% after withdrawal)): 27%
Frequency of cells with pNFH aggregates (PC-12 cells; cells transfected with full-length tau (32% after withdrawal)): 16%
Frequency of cells with pNFH aggregates (PC-12 cells; cells transfected with truncated tau (60% after withdrawal)): 36%
Inhibition of pNFH aggregates in the cytoplasm (PC-12 cells; untransfected PC-12 cells): Dose-dependent inhibition
pNFH-neurite index (NIE-115 cells; NIE-ND1, after db-cAMP, with thionine as printed (0.66 without)): 0.1
Proportion of cells containing pNFH aggregates (NIE-115 cells; NIE-ND6, transfected with truncated tau, with thionine (44% after withdrawal)): 14%
Incorporation of transgenic tau protein into the microtubular cytoskeleton (NIE-115 cells; cells transfected with full-length tau): did not interfere
Proportion of cells containing pNFH aggregates (NIE-115 cells; cells transfected with full-length tau, with thionine (16% after withdrawal)): 7%
Toxicity for neuronal cell lines (neuronal cell lines): not toxic
